pEC50: −log10 of the molar value. Read-outs that look alike come from different tables or passages of the source.
Target: T1, hTLR7 (Homo sapiens, UniProt Q9NYK1)
T1 construct: host or cells: HEK-Blue hTLR7 (HEK293-derived reporter cell line)
T1 sequence (Q9NYK1 27-1049): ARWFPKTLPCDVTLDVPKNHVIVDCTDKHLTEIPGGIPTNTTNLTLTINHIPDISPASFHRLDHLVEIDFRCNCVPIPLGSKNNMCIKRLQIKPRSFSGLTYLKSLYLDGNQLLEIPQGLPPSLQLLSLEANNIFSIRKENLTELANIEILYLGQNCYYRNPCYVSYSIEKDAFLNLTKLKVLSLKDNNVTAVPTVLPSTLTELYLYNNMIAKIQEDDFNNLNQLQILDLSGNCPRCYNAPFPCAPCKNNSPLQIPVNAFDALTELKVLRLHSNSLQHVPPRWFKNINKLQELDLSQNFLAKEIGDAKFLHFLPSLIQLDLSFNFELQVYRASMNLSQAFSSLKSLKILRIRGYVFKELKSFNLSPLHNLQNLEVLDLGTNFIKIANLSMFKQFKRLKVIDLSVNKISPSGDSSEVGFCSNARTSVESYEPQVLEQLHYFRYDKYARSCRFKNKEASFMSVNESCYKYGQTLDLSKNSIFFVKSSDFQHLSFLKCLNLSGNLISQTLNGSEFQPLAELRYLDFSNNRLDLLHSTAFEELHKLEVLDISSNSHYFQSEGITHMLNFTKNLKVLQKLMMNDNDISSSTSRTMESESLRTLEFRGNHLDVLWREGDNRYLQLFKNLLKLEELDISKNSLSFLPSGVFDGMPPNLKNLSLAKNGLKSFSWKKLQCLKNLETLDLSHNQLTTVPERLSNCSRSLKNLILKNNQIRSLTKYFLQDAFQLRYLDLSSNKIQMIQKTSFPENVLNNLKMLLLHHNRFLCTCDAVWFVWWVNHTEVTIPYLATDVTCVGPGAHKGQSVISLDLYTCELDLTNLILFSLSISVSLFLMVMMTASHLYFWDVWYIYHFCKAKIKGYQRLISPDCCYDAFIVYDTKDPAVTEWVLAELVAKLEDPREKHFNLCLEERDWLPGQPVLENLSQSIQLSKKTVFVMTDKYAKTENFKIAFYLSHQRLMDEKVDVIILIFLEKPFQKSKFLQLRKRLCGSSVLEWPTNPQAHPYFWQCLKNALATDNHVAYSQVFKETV
Test: HEK-Blue hTLR7 reporter assay (NF-kB-induced SEAP, Quanti-Blue, OD 655 nm)
Type: cell-based
Details: for TLR7 activity / potency stated in words: FIGS. 6-9
Protocol: HEK-Blue™ hTLR7 cells were incubated in HEK-Blue™ Detection medium and stimulated with increasing concentrations of TLR7 or TLR8 or TLR7/8 agonists. […] The EC50 was determined from dose-response curve using Prism Software.

[1] = Table 14, FIG. 8, (DL) = drug linker, read-out: TLR7 EC50
[2] = text to FIG. 5B and FIG. 8, read-out: EC50 values (TLR7)

| SMILES | pEC50 [1] | TLR7 activity / potency stated in words | other results |
| --- | --- | --- | --- |
| CCCCOc1nc(N)c2[nH]c(=O)n(Cc3ccc(CN4CCC(CCNC(=O)c5cccc(N)c5)CC4)cc3)c2n1 [AXC-903, 3-amino-N-(2-(1-(4-((6-amino-2-butoxy-8-oxo-7,8-dihydro-9H-purin-9-yl)methyl)benzyl)piperidin-4-yl)ethyl)benzamide] | 8.37 |  | pEC50 [2]: > 8.00 |
| CCCCOc1nc(N)c2[nH]c(=O)n(Cc3ccc(CN4CCC(C5CCN(C(=O)CON)CC5)CC4)cc3)c2n1 [AXC-901, 6-amino-9-(4-((1′-(2-(aminooxy)acetyl)-4,4′-bipiperidin-1-yl)methyl)benzyl)-2-butoxy-7H-purin-8(9H)-one] |  | highest potency |  |
| CCCCOc1nc(N)c2[nH]c(=O)n(Cc3ccc(CN4CCC(CCNC(=O)c5ccc(CCN)cc5)CC4)cc3)c2n1 [AXC-904, N-(2-(1-(4-((6-amino-2-butoxy-8-oxo-7,8-dihydro-9H-purin-9-yl)methyl)benzyl)piperidin-4-yl)ethyl)-4-(2-aminoethyl)benzamide] | 8.09 |  | pEC50 [2]: > 8.00 |
| CCOCc1nc2c(N)nc3ccccc3c2n1CCCCNC(=O)c1ccc(N)c(OC)c1 [AXC-807] |  |  | pEC50 (Table 10, FIG. 5A, 24 h, read-out: TLR7 EC50): 6.38 |
| CCCCNc1nc(N)c2[nH]c(=O)n(Cc3ccc(NCCN(C)CCNC(=O)CON)nc3)c2n1 [AXC-868, N-(2-((2-(5-((6-amino-2-(butylamino)-8-oxo-7H-purin-9(8H)-yl)methyl)pyridin-2-ylamino)ethyl)(methyl)amino)ethyl)-2-(aminooxy)acetamide] |  |  | pEC50 (Table 12, FIG. 6, TLR7 agonists attached to a linker, read-out: TLR Agonist Payload + Linkers EC50): < 5.30 |
| CCCCOc1nc(N)c2[nH]c(=O)n(Cc3ccc(CN4CCC(CCNC(=O)c5ccc(N)c(OC)c5)CC4)cc3)c2n1 [AXC-895, 4-amino-N-(2-(1-(4-((6-amino-2-butoxy-8-oxo-7H-purin-9(8H)-yl)methyl)benzyl)piperidin-4-yl)ethyl)-3-methoxybenzamide] |  | highest potency |  |
| CCCCOc1nc(N)c2[nH]c(=O)n(Cc3ccc(CN4CCC(CCNC(=O)CON)CC4)cc3)c2n1 [AXC-879, N-(2-(1-(4-((6-amino-2-butoxy-8-oxo-7H-purin-9(8H)-yl)methyl)benzyl)piperidin-4-yl)ethyl)-2-(aminooxy)acetamide] |  | highest potency |  |
| CCCCOc1nc(N)c2[nH]c(=O)n(Cc3ccc(CN4CCC(CCNC(=O)c5ccc(N)cc5)CC4)cc3)c2n1 [AXC-905, 4-amino-N-(2-(1-(4-((6-amino-2-butoxy-8-oxo-7,8-dihydro-9H-purin-9-yl)methyl)benzyl)piperidin-4-yl)ethyl)benzamide] | 8.59 |  |  |
